Data published in ChEMBL document CHEMBL5370549, “Optimization and evaluation of pyridinyl vinyl sulfones as Nrf2 activator for the antioxidant and anti-inflammatory effects” (Eur J Med Chem, 2023).
Counter-ions that a name gives are not always drawn.

Tests used:
CYP2C19 = CYP2C19 (Homo sapiens, UniProt P33261); assay: Inhibition of CYP2C19 (unknown origin) assessed as enzyme activity at 10 uM relative to control; format: ADME; parameters: scale not given: the % may be the effect or the level left; details: read-out: Activity
Sequence of CYP2C19 (P33261 whole entry): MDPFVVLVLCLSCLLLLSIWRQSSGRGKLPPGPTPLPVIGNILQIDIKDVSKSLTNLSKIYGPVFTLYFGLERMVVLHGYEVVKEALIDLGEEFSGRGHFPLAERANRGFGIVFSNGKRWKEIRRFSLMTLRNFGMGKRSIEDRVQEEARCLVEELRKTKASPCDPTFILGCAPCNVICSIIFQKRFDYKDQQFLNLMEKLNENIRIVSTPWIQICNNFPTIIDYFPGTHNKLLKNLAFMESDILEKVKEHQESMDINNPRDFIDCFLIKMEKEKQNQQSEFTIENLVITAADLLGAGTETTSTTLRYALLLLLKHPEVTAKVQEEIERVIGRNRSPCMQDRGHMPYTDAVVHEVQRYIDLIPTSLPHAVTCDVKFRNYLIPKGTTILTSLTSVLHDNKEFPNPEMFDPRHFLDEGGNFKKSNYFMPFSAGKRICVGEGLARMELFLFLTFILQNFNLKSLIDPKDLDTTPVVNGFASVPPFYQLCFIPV

CYP1A2 = molecular target: T1, CYP1A2 (Homo sapiens, UniProt P05177); assay: Inhibition of CYP1A2 (unknown origin) assessed as enzyme activity at 10 uM relative to control; format: ADME; parameters: scale not given: the % may be the effect or the level left; details: read-out: Activity
T1 sequence (P05177 whole entry): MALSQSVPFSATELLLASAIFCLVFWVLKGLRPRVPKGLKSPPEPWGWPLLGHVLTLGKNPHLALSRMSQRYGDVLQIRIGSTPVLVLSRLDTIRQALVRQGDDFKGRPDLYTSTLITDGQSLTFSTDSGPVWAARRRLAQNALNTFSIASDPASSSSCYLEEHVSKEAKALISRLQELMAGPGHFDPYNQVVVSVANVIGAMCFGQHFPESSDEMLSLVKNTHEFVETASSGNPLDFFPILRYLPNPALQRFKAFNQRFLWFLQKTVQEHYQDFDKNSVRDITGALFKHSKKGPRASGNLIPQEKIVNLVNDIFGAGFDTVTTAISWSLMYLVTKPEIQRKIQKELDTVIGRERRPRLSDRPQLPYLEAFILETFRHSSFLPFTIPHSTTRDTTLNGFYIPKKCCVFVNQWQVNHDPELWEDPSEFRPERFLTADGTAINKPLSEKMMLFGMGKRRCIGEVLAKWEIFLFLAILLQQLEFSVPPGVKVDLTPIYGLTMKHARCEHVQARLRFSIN

[1] = Metabolic stability of the compound in human plasma assessed as parent compound remaining measured after 30 mins; format: ADME, cell-free; details: read-out: Stability
[2] = molecular target: T2, Nuclear factor erythroid 2-related factor 2 (Homo sapiens, UniProt Q16236); assay: Activation of Nrf2 in human U2OS cells co-expressing Keap1 assessed as induction of Nrf2 nuclear translocation incubated for 6 hrs by PathHunter chemiluminescence based analysis; format: cell-based
T2 sequence (Q16236 whole entry): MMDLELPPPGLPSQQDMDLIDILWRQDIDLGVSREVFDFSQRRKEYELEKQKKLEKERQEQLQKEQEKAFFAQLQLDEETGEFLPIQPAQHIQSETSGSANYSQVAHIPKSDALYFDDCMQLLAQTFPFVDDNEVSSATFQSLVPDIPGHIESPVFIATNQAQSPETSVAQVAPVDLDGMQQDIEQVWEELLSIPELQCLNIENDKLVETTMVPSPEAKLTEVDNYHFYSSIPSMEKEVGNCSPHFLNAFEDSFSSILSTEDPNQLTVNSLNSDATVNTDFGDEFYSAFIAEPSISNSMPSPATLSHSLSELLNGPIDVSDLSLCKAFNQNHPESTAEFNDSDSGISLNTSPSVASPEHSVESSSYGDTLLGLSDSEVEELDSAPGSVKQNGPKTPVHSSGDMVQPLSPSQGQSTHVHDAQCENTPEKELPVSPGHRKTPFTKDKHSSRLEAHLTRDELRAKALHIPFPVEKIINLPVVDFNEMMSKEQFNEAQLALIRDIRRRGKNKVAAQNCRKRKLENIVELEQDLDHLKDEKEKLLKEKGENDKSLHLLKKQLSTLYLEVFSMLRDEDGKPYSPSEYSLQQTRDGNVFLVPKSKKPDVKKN

[3] = Metabolic stability of the compound in human liver microsomes assessed as parent compound remaining measured after 30 mins; format: ADME, Microsome; details: read-out: Stability
CYP2D6 = CYP2D6 (Homo sapiens, UniProt P10635); assay: Inhibition of CYP2D6 (unknown origin) assessed as enzyme activity at 10 uM relative to control; format: ADME; parameters: scale not given: the % may be the effect or the level left; details: read-out: Activity
Sequence of CYP2D6 (P10635 whole entry): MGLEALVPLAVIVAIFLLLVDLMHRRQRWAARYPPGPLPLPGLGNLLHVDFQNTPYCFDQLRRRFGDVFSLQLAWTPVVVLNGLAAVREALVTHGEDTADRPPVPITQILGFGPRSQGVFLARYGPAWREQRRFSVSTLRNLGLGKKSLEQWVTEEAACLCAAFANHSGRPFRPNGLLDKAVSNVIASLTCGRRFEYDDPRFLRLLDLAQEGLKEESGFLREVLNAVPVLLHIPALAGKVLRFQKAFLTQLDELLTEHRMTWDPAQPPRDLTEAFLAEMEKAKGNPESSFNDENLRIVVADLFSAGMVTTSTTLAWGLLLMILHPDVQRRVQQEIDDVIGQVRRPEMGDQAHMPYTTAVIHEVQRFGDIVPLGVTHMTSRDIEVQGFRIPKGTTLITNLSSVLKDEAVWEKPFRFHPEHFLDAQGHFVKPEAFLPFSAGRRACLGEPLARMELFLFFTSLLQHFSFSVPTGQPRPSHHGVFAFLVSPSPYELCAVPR

CYP3A4 = CYP3A4 (Homo sapiens, UniProt P08684); assay: Inhibition of CYP3A4 (unknown origin) assessed as enzyme activity at 10 uM relative to control; format: ADME; parameters: scale not given: the % may be the effect or the level left; details: read-out: Activity
Sequence of CYP3A4 (P08684 whole entry): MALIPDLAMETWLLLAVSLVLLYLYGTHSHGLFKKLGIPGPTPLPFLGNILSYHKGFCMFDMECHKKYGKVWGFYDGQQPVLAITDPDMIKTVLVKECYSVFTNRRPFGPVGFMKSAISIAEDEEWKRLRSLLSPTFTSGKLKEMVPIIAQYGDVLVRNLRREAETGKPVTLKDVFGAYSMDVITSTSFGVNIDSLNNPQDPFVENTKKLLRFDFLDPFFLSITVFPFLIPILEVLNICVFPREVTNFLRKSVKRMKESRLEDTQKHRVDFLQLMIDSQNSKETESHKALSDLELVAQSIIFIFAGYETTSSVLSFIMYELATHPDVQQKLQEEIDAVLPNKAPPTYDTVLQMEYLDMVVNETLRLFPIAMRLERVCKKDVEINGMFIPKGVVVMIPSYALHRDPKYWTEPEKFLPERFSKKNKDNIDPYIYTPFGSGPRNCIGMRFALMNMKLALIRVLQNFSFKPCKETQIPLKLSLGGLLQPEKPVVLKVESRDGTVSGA

CYP2C9 = CYP2C9 (Homo sapiens, UniProt P11712); assay: Inhibition of CYP2C9 (unknown origin) assessed as enzyme activity at 10 uM relative to control; format: ADME; parameters: scale not given: the % may be the effect or the level left; details: read-out: Activity
Sequence of CYP2C9 (P11712 whole entry): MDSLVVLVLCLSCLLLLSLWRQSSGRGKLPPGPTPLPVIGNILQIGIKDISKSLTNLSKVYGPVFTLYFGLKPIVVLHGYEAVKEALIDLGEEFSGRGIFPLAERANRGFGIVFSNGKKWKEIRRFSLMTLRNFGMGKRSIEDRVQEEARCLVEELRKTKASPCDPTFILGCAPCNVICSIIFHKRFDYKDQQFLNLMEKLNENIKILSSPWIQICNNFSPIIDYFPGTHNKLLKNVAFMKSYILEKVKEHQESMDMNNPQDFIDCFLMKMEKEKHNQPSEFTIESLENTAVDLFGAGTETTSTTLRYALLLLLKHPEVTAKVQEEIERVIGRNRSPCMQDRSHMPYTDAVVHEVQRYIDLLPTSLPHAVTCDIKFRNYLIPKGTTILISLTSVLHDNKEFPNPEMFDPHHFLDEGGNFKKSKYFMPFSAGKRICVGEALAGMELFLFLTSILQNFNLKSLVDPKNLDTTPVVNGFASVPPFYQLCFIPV

[4] = Metabolic stability of the compound in rat plasma assessed as parent compound remaining measured after 30 mins; format: ADME, cell-free; details: read-out: Stability
[5] = Metabolic stability of the compound in mouse liver microsomes assessed as parent compound remaining measured after 30 mins; format: ADME, Microsome; details: read-out: Stability

| SMILES | activity at 10 µM (CYP2C19) | activity at 10 µM (CYP1A2) | remaining at 0.5 h [1] | EC50 [2] | remaining at 0.5 h [3] | activity at 10 µM (CYP2D6) | activity at 10 µM (CYP3A4) | activity at 10 µM (CYP2C9) | remaining at 0.5 h [4] | remaining at 0.5 h [5] |
| --- | --- | --- | --- | --- | --- | --- | --- | --- | --- | --- |
| COc1ccncc1S(=O)(=O)/C=C/c1ccccc1C(F)(F)F | 23.5% | 12.1% | – | 248 nM | 82.9% | 85.1% | 12% | > 99% | – | 71.9% |
| COc1ccc([S+]([O-])/C=C/c2ccccc2C(F)(F)F)nc1 (stereo unspecified) | 2.5% | 48.8% | > 99% | – | 28% | 94% | 78% | > 99% | 89% | 1% |
| COc1cccnc1S(=O)(=O)/C=C/c1ccccc1C(F)(F)F | 59.1% | 71.2% | 96.8% | 146 nM | 52.9% | 99.1% | 76% | 79.2% | 93.5% | 17.8% |
| COc1ccnc(S(=O)(=O)/C=C/c2ccc(Cl)cn2)c1 | 10.7% | 33.3% | 91.1% | 1310 nM | 70.3% | 96.3% | 95.1% | > 99% | 84.8% | 67.6% |
| COc1ccnc(S(=O)(=O)/C=C/c2ncccc2Cl)c1 | 27.6% | 69.9% | 95% | 30 nM | 61.7% | 100% | 70.9% | 76.1% | 65.9% | 36.8% |
| COc1cccnc1C(=O)/C=C/c1ccccc1C(F)(F)F | 8.2% | 3.7% | 96.5% | – | 1% | 91.3% | 27.4% | > 99% | 94.3% | 1.4% |
| COc1ccnc(S(=O)(=O)/C=C/c2ccc(Cl)cc2)c1 | 10.5% | 49% | > 99% | 1220 nM | 37.8% | 98.5% | 85.8% | > 99% | > 99% | 18.8% |
| COc1cccc([S+]([O-])/C=C/c2ccccc2C(F)(F)F)n1 (stereo unspecified) | 5.5% | 4.9% | 82.4% | – | 6.3% | 72.6% | 38.3% | 78.3% | 89.8% | 1.1% |
| COC(=O)/C=C/C(=O)O [MONOMETHYL FUMARATE] | – | – | – | > 10000 nM | – | – | – | – | – | – |
| COc1cccnc1S(=O)(=O)/C=C/c1ccccc1Cl | 60.7% | 71.8% | 92.4% | 76 nM | 83.1% | 93.4% | 87.1% | 59.7% | > 99% | 34.4% |
| COc1ccnc(S(=O)(=O)/C=C/c2ccncc2Cl)c1 | 22.4% | 29.9% | 83.6% | 32 nM | 77.3% | 69.8% | 70.2% | > 99% | 43.4% | 50.4% |

The next lines start with the values.

| activity at 10 µM (CYP2C19) | activity at 10 µM (CYP1A2) | remaining at 0.5 h [1] | EC50 [2] | remaining at 0.5 h [3] | activity at 10 µM (CYP2D6) | activity at 10 µM (CYP3A4) | activity at 10 µM (CYP2C9) | remaining at 0.5 h [4] | remaining at 0.5 h [5] | SMILES |
| --- | --- | --- | --- | --- | --- | --- | --- | --- | --- | --- |
| 17.6% | 57.3% | 97.4% | 214 nM | 59.4% | > 99% | 51.7% | > 99% | 88.6% | 29.9% | COc1ncccc1S(=O)(=O)/C=C/c1ncccc1C(F)(F)F |
| 24.3% | 89.6% | 93.1% | 400 nM | 88.4% | > 99% | > 99% | > 99% | 59% | 64.5% | COc1ccnc(S(=O)(=O)/C=C/c2ccnc(Cl)c2)c1 |
| 29% | 74.2% | 96.7% | 33 nM | 48.1% | > 99% | 72.6% | > 99% | 91.5% | 44% | COc1ccc(S(=O)(=O)/C=C/c2ncccc2Cl)nc1 |
| – | – | – | 5110 nM | – | – | – | – | – | – | COC(=O)/C=C/C(=O)OC [DIMETHYL FUMARATE] |
| 30.2% | 81% | 99% | 49 nM | 76.6% | 99.8% | 91.5% | > 99% | 91.9% | 61.4% | COc1ccnc(S(=O)(=O)/C=C/c2cccnc2Cl)c1 |
| 13.2% | 4.9% | 98.4% | 316 nM | 19.3% | 91.7% | 30.6% | 71% | 91.8% | 6% | COc1cccc(S(=O)(=O)/C=C/c2ccccc2C(F)(F)F)n1 |
| 42.9% | 79.5% | – | 51 nM | 91.4% | 88.7% | 15.7% | > 99% | – | 77.1% | COc1ccncc1S(=O)(=O)/C=C/c1ncccc1Cl |
| 32.9% | 32.8% | > 99% | – | 46.3% | 95.9% | 36.9% | 56.3% | > 99% | 5% | COc1cccnc1[S+]([O-])/C=C/c1ccccc1C(F)(F)F (stereo unspecified) |
| 15% | 31% | 98.5% | 75 nM | 77.6% | > 99% | 53% | > 99% | 91.3% | 59.2% | COc1ncccc1S(=O)(=O)/C=C/c1ncccc1Cl |
| 17.9% | 83% | 98.6% | 914 nM | 65.8% | > 99% | > 99% | 91.7% | 97.3% | 82.1% | COc1ccnc(S(=O)(=O)/C=C/c2ccc(Cl)nc2)c1 |
| 7.7% | 6.73% | > 99% | 231 nM | 13.8% | 97.6% | 28% | > 99% | 98.9% | 4.4% | COc1cccc(S(=O)(=O)/C=C/c2ccccc2Cl)n1 |
| > 99% | 82.1% | – | 1870 nM | > 99% | 91.9% | > 99% | 66.5% | – | > 99% | COc1cccnc1/C=C/S(=O)(=O)c1ncccc1OC |
| 6.4% | 34.3% | 96% | – | 40.6% | 85.7% | 45.1% | 81.9% | 92.2% | 1.4% | COc1ccnc([S+]([O-])/C=C/c2ccccc2C(F)(F)F)c1 (stereo unspecified) |
